Results from patent US10328066B2, “Pharmaceutical combination comprising the PI3K inhibitor alpelisib and the CDK4/6 inhibitor ribociclib, and the use thereof in the treatment/prevention of cancer” (Novartis AG, priority 2015, dated 2019).

Assays:
Type in all cases: cell-based
[1] = tested on: 15 colorectal cancer cell lines; assay: In vitro proliferation, summary over the cell line panel; conditions: single agents
Experimental: (§1) COMPOUNDS A, B, and C were dissolved in 100% DMSO (Sigma, Catalog number D2650) at concentrations of 20 mM and stored at −20° C. until use. Compounds were arrayed in drug master plates (Greiner, Catalog number 788876) and serially diluted 3-fold (7 steps) at 2000× concentration.
(§2) Colorectal cancer cell lines used for this study were obtained, cultured and processed from commercial vendors ATCC, CellBank Australia, DMSZ, ECACC, and HSRRB (Table 1). All cell line media were supplemented with 10% FBS (HyClone, Catalog number SH30071.03). Media for LIM2551 was additionally supplemented with 0.6 μg/mL Insulin (SIGMA, Catalog number 19278), 1 μg/mL Hydrocortisone (SIGMA, Catalog number H0135), and 10 μM 1-Thioglycerol (SIGMA, Catalog number M6145).
(§3) Cell lines were cultured in 37° C. and 5% CO2 incubator and expanded in T-75 flasks. In all cases cells were thawed from frozen stocks, expanded through ≥1 passage using 1:3 dilutions, counted and assessed for viability using a ViCell counter (Beckman-Coulter) prior to plating. To split and expand cell lines, cells were dislodged from flasks using 0.25% Trypsin-EDTA (GIBCO, Catalog number 25200). All cell lines were determined to be free of mycoplasma contamination as determined by a PCR detection methodology performed at Idexx Radil (Columbia, Mo., USA) and correctly identified by detection of a panel of SNPs.
To test the effect of the combination of COMPOUND A, COMPOUND B, and COMPOUND C on cell proliferation cells were plated in black 384-well microplates with clear bottom (Matrix/Thermo Scientific, Catalog number 4332) in 50 μL media per well at cell densities between 500 and 1250 cells/well (Table 1) and allowed to incubate at 37 degrees, 5% CO2 for 24 h. […] Caspase 3/7 induction was measured as a proxy for apoptosis induced by the treatments. Cells were treated for 72 h to 96 h depending on their doubling time (Table 1), and Caspase 3/7 activation was measured every 24 h by microscopy using an InCell Analyzer 2000 (GE Healthcare) equipped with a 4× objective and FITC excitation/emission filters. […]

SW480 = assay: In vitro proliferation (cell count by microscopy), single agents and combination; conditions: Homo sapiens; SW480 (KRAS), 72 h treatment; 50% of cell counts relative to DMSO
Experimental: as §1, §2, §3
(§4) To test the effect of the combination of COMPOUND A, COMPOUND B, and COMPOUND C on cell proliferation cells were plated in black 384-well microplates with clear bottom (Matrix/Thermo Scientific, Catalog number 4332) in 50 μL media per well at cell densities between 500 and 1250 cells/well (Table 1) and allowed to incubate at 37 degrees, 5% CO2 for 24 h. After 24 h one 384-well plate per cell line was prepared for cell counting by microscopy (see below) without receiving treatment (=‘baseline’). The other cell plates were treated by transferring 25 nL of the 2000× compound from drug master plates using an ATS acoustic liquid dispenser (ECD Biosystems) and resulting in a final 1× concentration. COMPOUND A was used over a final concentration range of 13 nM-10 μM, COMPOUND B was used over a final concentration range of 13 nM-10 μM, and COMPOUND C was used over a final concentration range of 27 nM-20 μM (7 1:3 dilution steps). In order to assess the effect of the triple combination all individual COMPOUNDS (A, B, C), all three pair wise combinations (A+B, A+C, B+C), and the triple combination (A+B+C) were tested in the same experiment. Pair wise combinations and the triple combination were tested at a fixed ratio of 1:1 (for drug pairs) and 1:1:1 (for the drug triple) at each dilution resulting in 7 combination conditions per treatment. […] After compound addition 50 nL of 2 mM CellEvent Caspase-3/7 Green Detection Reagent (ThermoFisher, Catalog number C10423) were added to one of the three replicates using the HP D300 Digital Dispenser (Tecan). Caspase 3/7 induction was measured as a proxy for apoptosis induced by the treatments. Cells were treated for 72 h to 96 h depending on their doubling time (Table 1), and Caspase 3/7 activation was measured every 24 h by microscopy using an InCell Analyzer 2000 (GE Healthcare) equipped with a 4× objective and FITC excitation/emission filters. At the end of the treatment cells were prepared for cell counting by microscopy. Cells were fixed and permeabilised for 45 minutes in 4% PFA (Electron Microscopy Sciences, Catalog number 15714), 0.12% TX-100 (Electron Microscopy Sciences, Catalog number 22140) in PBS (Boston Bioproducts, Catalog number BM-220). After washing cells three times with PBS their DNA was stained for 30 minutes with Hoechst 33342 (ThermoFisher, Catalog number H3570) at a final concentration of 4 μg/mL. Cells were washed three times with PBS and then plates were heat-sealed using a PlateLoc (Agilent Technologies) with aluminum seals (Agilent Technologies, Catalog number 06644-001) and stored at 4° C. until imaging. […]

LS411N = assay: as above; conditions: Homo sapiens, LS-411N; LS411N (BRAF), 72 h treatment; 50% of cell counts relative to DMSO
Experimental: as §1, §2, §3, §4

HCT-116 = assay: as above; conditions: Homo sapiens; HCT-116 (KRAS, PIK3CA), 72 h treatment; 50% of cell counts relative to DMSO
Experimental: as §1, §2, §3, §4

NCI-H508 = assay: as above; conditions: Homo sapiens; NCI-H508 (PIK3CA), 72 h treatment; 50% of cell counts relative to DMSO
Experimental: as §1, §2, §3, §4

DLD-1 = assay: as above; conditions: Homo sapiens; DLD-1 (KRAS, PIK3CA), 72 h treatment; 50% of cell counts relative to DMSO
Experimental: as §1, §2, §3, §4

LIM2551 = assay: as above; conditions: LIM2551 (BRAF, PIK3CA), 72 h treatment; 50% of cell counts relative to DMSO
Experimental: as §1, §2, §3, §4

OUMS-23 = assay: as above; conditions: OUMS-23 (BRAF), 72 h treatment; 50% of cell counts relative to DMSO
Experimental: as §1, §2, §3, §4

COLO-320 = assay: as above; conditions: Homo sapiens; COLO-320 (no driver mutation listed), 72 h treatment; 50% of cell counts relative to DMSO
Experimental: as §1, §2, §3, §4

RKO = assay: as above; conditions: Homo sapiens; RKO (BRAF, PIK3CA), 72 h treatment; 50% of cell counts relative to DMSO
Experimental: as §1, §2, §3, §4

SW837 = assay: as above; conditions: Homo sapiens; SW837 (KRAS), 72 h treatment; 50% of cell counts relative to DMSO
Experimental: as §1, §2, §3, §4

LS-180 = assay: as above; conditions: Homo sapiens, LS180; LS-180 (KRAS, PIK3CA), 72 h treatment; 50% of cell counts relative to DMSO
Experimental: as §1, §2, §3, §4

COLO-205 = assay: as above; conditions: Homo sapiens; COLO-205 (BRAF), 72 h treatment; 50% of cell counts relative to DMSO
Experimental: as §1, §2, §3, §4

HT-29 = assay: as above; conditions: Homo sapiens; HT-29 (BRAF, PIK3CA), 72 h treatment; 50% of cell counts relative to DMSO
Experimental: as §1, §2, §3, §4

GP2d = assay: as above; conditions: GP2d (KRAS, PIK3CA), 72 h treatment; 50% of cell counts relative to DMSO
Experimental: as §1, §2, §3, §4

LoVo = assay: as above; conditions: Homo sapiens; LoVo (KRAS), 96 h treatment; 50% of cell counts relative to DMSO
Experimental: as §1, §2, §3, §4

Row | IC50 values across the cell lines (summary in words) [1] | IC50 (SW480) | IC50 (HCT-116) | IC50 (NCI-H508) | IC50 (DLD-1) | IC50 (COLO-320) | IC50 (SW837) | IC50 (COLO-205) | IC50 (HT-29) | IC50 (LoVo) | Compound | IC50 (LS411N) | IC50 (LIM2551) | IC50 (OUMS-23) | IC50 (RKO) | IC50 (LS-180) | IC50 (GP2d)
1 | mostly micromolar IC50 values |  |  |  |  |  |  |  |  |  | Cc1nc(NC(=O)N2CCC[C@H]2C(N)=O)sc1-c1ccnc(C(C)(C)C(F)(F)F)c1 [COMPOUND A, (S)-Pyrrolidine-1,2-dicarboxylic acid 2-amide 1-({4-methyl-5-[2-(2,2,2-trifluoro-1,1-dimethyl-ethyl)-pyridin-4-yl]-thiazol-2-yl}-amide)] |  |  |  |  |  | 
2 | mostly micromolar IC50 values |  |  |  |  |  |  |  |  |  | CN(C)C(=O)c1cc2cnc(Nc3ccc(N4CCNCC4)cn3)nc2n1C1CCCC1 [COMPOUND B, 7-Cyclopentyl-2-(5-piperazin-1-yl-pyridin-2-ylamino)-7H-pyrrolo[2,3-d]pyrimidine-6-carboxylic acid dimethylamide] |  |  |  |  |  | 

Row | Compound | IC50 values across the cell lines (summary in words) [1] | IC50 (SW480) | IC50 (HCT-116) | IC50 (NCI-H508) | IC50 (DLD-1) | IC50 (COLO-320) | IC50 (SW837) | IC50 (COLO-205) | IC50 (HT-29) | IC50 (LoVo) | IC50 (LS411N) | IC50 (LIM2551) | IC50 (OUMS-23) | IC50 (RKO) | IC50 (LS-180) | IC50 (GP2d)
3 | O=c1[nH]cc(F)c(=O)[nH]1 [COMPOUND C, 5-fluoro-2,4-(1H,3H) pyrimidinedione] | micromolar IC50s in all but one cell line (SW480) | > 20 µM | 5.6 µM | 3.3 µM | 6.6 µM | 2.4 µM | 7.7 µM | 0.6 µM | 7.4 µM | 5.6 µM | 4.1 µM | 4.2 µM | 10.4 µM | 2.1 µM | 14 µM | 3.2 µM
